Patent US6087375A, “Methods of treating or preventing thromboses” (priority 1999, dated 2000)

Experiments:
Assay type in all cases: binding
[1] = test system: rabbit erythrocyte membrane and cytosolic proteins; test: Immunoblotting and ELISA of rabbit erythrocyte ghost and cytosol fractions after conjugation
Method: Material and Methods: Rabbit erythrocytes were conjugated with the Argatroban-C6 NHS ester compound (compound YL-015-35). To do so, rabbit erythrocytes were isolated from fresh, citrated blood. In brief, an aliquot of blood was centrifuged for 5 minutes at 1800 rpm (Sorvall RC-5B, SH-3000 rotor). The buffy coat was pipetted off the top layer of the cell pellet and the remaining erythrocytes were washed four times with PBS, pH 7.4. Before the last wash, an aliquot of cells was removed for counting. The washed erythrocytes were resuspended at a density of 1×10^9 cells/mL. The total volume of cells labeled per sample was 3 mL. […] After the labeling reaction, the cells were centrifuged 4 minutes at 1800 rpm and the supernatant was discarded. The cells were resuspended in 10 ml of 0.5% DMSO/PBS and pelleted. The cells were washed one more time with 10 ml of PBS.
To quench any remaining reactive esters, the cells were then resuspended in 6 mg/mL BSA/PBS (Sigma, A-2934, lot 93HO291) and gently agitated at room temperature for 30 minutes. After quenching, the cells were washed five times with PBS. Cell yields were determined by cell counting.
After conjugation, the cells were hypotonically lysed and the ensuing membrane (ghost) and cytosol fractions were assayed by immunoblotting and ELISA. Specifically, conjugated erythrocyte pellets were chilled on ice for 5 minutes. Cells were then lysed on ice with 12 ml of ice-cold 5 mM phosphate buffer, pH 8.0 (PB) containing 1 mM Pefabloc and 40 μM leupeptin. Lysates were briefly vortexed and then centrifuged for 20 minutes at 4° C. at 15,000 rpm (SS-34, Sorvall RC-5B). The supernatant (hemolysate) was pipetted off the pellet, labeled and stored at 4° C. The pellets (ghosts) were washed four times with 12 ml of cold PBS and centrifuged as above. The protein content of the ghosts and hemolysates was determined by using the Micro BCA kit (Pierce; catalog no. 23231). Cell fractions were stored at -80° C.
Samples were then solubilized in 2×reducing cocktail (5% SDS, 50% glycerol, 0.5 M 2-mercaptoethanol in 0.25 M Tris-HCI, pH 6.8). […]

[2] = molecular target: human serum albumin (HSA) (Homo sapiens, UniProt P02768); test: Mass spectrometric analysis of conjugation to HSA (HPLC/ESIMS); conditions: HSA 5 μM, 100 μM ester, 1 hour, room temperature
Method: (§1) All samples were analyzed using a high performance liquid chromatograph (HPLC) coupled in-line to an electrospray ionization (ESI) mass spectrometer (MS) which is termed HPLC/ESIMS. Some samples were also analyzed using a matrix-assisted laser desorption ionization (MALDI) time-of-flight (TOF) mass spectrometer which is termed (MALDI-TOFMS).
(§2) Samples for HPLC/ESIMS were either prepared as duplicate reaction samples or were part of the same reaction samples which were used in the ELISA assays described below. These samples were injected directly only the HPLC/ESIMS without any manipulation other than dilution with water, where the PBS, DMSO, and unreacted derivative molecules are separated from the protein-argatroban derivative molecule conjugate. Samples for MALDI-MS were first HPLC-purified and mixed 1:1 directly on the stainless steel analysis plate with a matrix of 10 mg/ml sinnapinic acid in 50% acetonitrile/50% water. The mixture was then dried with a gentle flow of air to allow for crystallization and inserted into the instrument for laser ionization.
(§3) The HPLC is a Hewlett Packard 1090 Series II liquid chromatogram with a diode array detector. The column used for separation is a Brownlee aquapore OD-300 reversed phase C18 column, 1 mm×10 cm, 300 Å pore size, 7 μm particle diameter. The mass spectrometer to which the HPLC is connected using fused Silica capillary tubing is a Sciex API-300 triple quadrupole mass spectrometer with an ionspray source to allow for atmospheric pressure ionization of a liquid flowing continuously into the instrument. The MALDI-TOFMS is a Perceptive Biosystems Voyager Elite DE instrument run in the linear mode.

[3] = molecular target: rabbit serum albumin (RSA) (Oryctolagus cuniculus, UniProt P49065); test: Mass spectrometric analysis of conjugation to RSA (HPLC/ESIMS, MALDI-TOFMS); conditions: for average argatroban derivative molecules added per RSA molecule / range of argatroban derivative molecules added per RSA molecule: MALDI-MS
Method: as §1, §2, §3
The conjugate was prepared according to the following protocol. […] Sham samples consist of the RSA incubated for the same length of time at RT in 2% DMSO in PBS. Each of the samples was then concentrated to a final volume of 1.5 mL using Amicon Centricon 30 filtration/concentration devices. The concentrated samples were then desalted on Pierce's 5 ML Kwiksep excellulose plastic desalting columns. The excluded volumes containing RSA or argatroban-C6-RSA were then subjected to BCA microprotein estimation and lyophilization. In addition, these samples were analyzed by LC/MS, sandwich ELISA assays (described above) to measure thrombin binding and immunoblotting.

[4] = concentration study, 10 μM ester, RSA 4.5 μM, HPLC/ESIMS

Sequence of rabbit serum albumin (RSA) (P49065 25-608): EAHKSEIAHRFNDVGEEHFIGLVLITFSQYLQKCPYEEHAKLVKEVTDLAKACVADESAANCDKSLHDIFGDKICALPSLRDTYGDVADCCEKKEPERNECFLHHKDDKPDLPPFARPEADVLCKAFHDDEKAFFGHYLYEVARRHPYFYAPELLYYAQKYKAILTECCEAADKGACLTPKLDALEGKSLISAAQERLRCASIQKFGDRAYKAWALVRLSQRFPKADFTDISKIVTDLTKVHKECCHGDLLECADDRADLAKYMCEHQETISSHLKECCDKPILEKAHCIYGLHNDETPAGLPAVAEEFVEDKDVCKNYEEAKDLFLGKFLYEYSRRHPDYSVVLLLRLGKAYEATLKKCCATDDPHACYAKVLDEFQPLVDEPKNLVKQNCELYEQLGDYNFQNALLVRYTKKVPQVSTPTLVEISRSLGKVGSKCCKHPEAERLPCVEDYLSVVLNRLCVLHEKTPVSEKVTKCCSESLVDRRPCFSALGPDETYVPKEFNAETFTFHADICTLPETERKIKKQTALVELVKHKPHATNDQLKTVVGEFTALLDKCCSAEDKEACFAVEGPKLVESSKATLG
Sequence of human serum albumin (HSA) (P02768 25-609): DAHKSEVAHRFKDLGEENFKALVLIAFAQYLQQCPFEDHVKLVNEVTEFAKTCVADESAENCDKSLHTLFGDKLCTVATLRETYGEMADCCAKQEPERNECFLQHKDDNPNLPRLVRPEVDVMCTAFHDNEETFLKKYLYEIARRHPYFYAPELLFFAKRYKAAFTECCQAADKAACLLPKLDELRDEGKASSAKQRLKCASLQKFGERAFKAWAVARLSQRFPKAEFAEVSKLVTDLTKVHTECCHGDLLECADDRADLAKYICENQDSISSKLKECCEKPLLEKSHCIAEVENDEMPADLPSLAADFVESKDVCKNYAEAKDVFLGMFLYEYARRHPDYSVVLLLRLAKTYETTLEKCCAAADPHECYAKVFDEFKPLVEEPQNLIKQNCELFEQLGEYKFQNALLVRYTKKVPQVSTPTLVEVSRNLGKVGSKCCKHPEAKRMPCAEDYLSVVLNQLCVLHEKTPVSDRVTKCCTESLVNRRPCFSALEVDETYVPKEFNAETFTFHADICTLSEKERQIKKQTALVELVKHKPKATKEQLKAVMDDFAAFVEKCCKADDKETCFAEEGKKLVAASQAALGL

argatroban derivative molecules added [3, 4]: 1 argatroban derivative molecule
fraction of the RSA molecules to which 1 argatroban derivative molecule is added [3, 4]: ~ 50%
major species of RSA molecules ([3]; concentration study, 15 μM ester, RSA 4.5 μM): majority of RSA molecules are +1
major species of RSA molecules ([3]; concentration study, 20 μM ester, RSA 4.5 μM): majority of RSA molecules are +1 and +2
major species of RSA molecules ([3]; concentration study, 25 μM ester, RSA 4.5 μM): majority of RSA molecules are +1 and +2
major species of RSA molecules ([3]; concentration study, 100 μM ester, RSA 4.5 μM): no major species
SMILES: CC1CNc2c(cccc2S(=O)(=O)NC(CCCN=C(N)N)C(=O)N2CCC(C)CC2C(=O)NCCCCCC(=O)ON2C(=O)CCC2=O)C1 (stereo not shown) [compound YL-015-35]
labeled proteins belonging to the glycophorin family ([1]; capture ELISA assay): a portion of the thrombin inhibitor-labeled proteins belong to the glycophorin family of proteins
presence of derivatized argatroban molecules on cytosolic proteins ([1]; rabbit erythrocytes, cytosol fraction): at the limit of detection
covalent modification of erythrocyte membrane proteins ([1]; rabbit erythrocytes, immunoblotting): numerous erythrocyte membrane proteins were covalently modified
covalent addition of argatroban derivative molecules per HSA molecule [2]: 1-8 argatroban derivative molecules per HSA molecule
covalent addition of argatroban derivative molecules per RSA molecule ([3]; HPLC/ESIMS, RSA 4.5 μM, 100 μM ester, 1 hour, room temperature): 1-8 argatroban derivative molecules per RSA molecule
covalent addition of argatroban derivative molecules per RSA molecule ([3]; HPLC/ESIMS, RSA 15 μM, 200 μM ester): 1-9 argatroban derivative molecules per RSA molecule
covalent addition of argatroban derivative molecules per RSA molecule ([3]; HPLC/ESIMS, RSA 30 μM, 300 μM ester): 1-9 argatroban derivative molecules per RSA molecule
average argatroban derivative molecules added per RSA molecule ([3]; RSA 15 μM, 200 μM ester): 5.6 argatroban derivative molecules added per RSA molecule
range of argatroban derivative molecules added per RSA molecule ([3]; RSA 15 μM, 200 μM ester): 1-10 argatroban derivative molecules added per RSA molecule
average argatroban derivative molecules added per RSA molecule ([3]; RSA 30 μM, 300 μM ester): 5.4 argatroban derivative molecules added per RSA molecule
range of argatroban derivative molecules added per RSA molecule ([3]; RSA 30 μM, 300 μM ester): 1-10 argatroban derivative molecules added per RSA molecule
argatroban derivative molecules added ([3]; concentration study, 1 μM ester, RSA 4.5 μM, HPLC/ESIMS): no detectable argatroban derivative molecules
argatroban derivative molecules added per RSA molecule ([3]; concentration study, 15 μM ester, RSA 4.5 μM, HPLC/ESIMS): 0-3 argatroban derivative molecules per RSA molecule
argatroban derivative molecules added per RSA molecule ([3]; concentration study, 20 μM ester, RSA 4.5 μM, HPLC/ESIMS): 1-3 argatroban derivative molecules per RSA molecule
argatroban derivative molecules added per RSA molecule ([3]; concentration study, 25 μM ester, RSA 4.5 μM, HPLC/ESIMS): 1-4 argatroban derivative molecules per RSA molecule
argatroban derivative molecules added per RSA molecule ([3]; concentration study, 100 μM ester, RSA 4.5 μM, HPLC/ESIMS): 2-10 argatroban derivative molecules per RSA molecule
